Data taken from patent US12227520B2 (priority 2019, dated 2025).
Like-named read-outs stand apart in the source and are kept apart here.

Legend:
[1] = test system: HIV-1 (IIIB); experiment: Antiviral assay in MT-4 cells (HIV MT-4 antiviral assay); assay type: cell-based; details: Human immunodeficiency virus 1, IIIB, MT4, 120 h, HIV-1 (IIIB) in MT-4 cells, 5 days incubation
In short: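 Read-out is CellTiter-Glo chemiluminescence after 5-day culture at 37° C, giving protection of MT-4 cells from HIV-1 IIIB cytopathicity. Compounds tested in 1:3 dilution series in complete RPMI; controls were no drug, mock infection and 5 μM AZT.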

[2] = Cytotoxicity assay in MT-4 cells; assay type: cell-based, human; details: human, uninfected MT-4 cells, 5 days incubation; read-out: CC50
In short: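 For cytotoxicity, uninfected MT-4 cells were incubated with compounds 5 days at 37 °C, with 10 μM puromycin marking base cytotoxicity. Parallel plates used HIV-1 IIIB-infected (1:250 stock dilution) or mock cells with 5 μM AZT and no-drug controls. Read-out: CellTiter-Glo chemiluminescence.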

[3] = test system: pLai RLuc reporter virus; experiment: microbe, parasite or virus in culture; assay type: cell-based, HIV; details: Human immunodeficiency virus 1, 72 h
In short: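 Read-out is Renilla luciferase after 72 h at 37 °C in MT-4 cells infected 2 h beforehand with pLai RLuc reporter virus; compounds diluted 1:3.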

[4] = read-out: Antiviral Serum Shift RLuc 50% HS, HS/CCM (RPMI media, 10% FBS, 50% HS, 1% P/S), 72-h incubation
[5] = read-out: Antiviral Serum Shift RLuc CCM, CCM (RPMI media, 10% FBS, 1% P/S), 72-h incubation

Row | SMILES | EC50 ([1]; read-out: EC50) [nM] | CC50 at 5 days [2] [nM] | EC50 [3, 4] [nM] | EC50 [3, 5] [nM] | EC50 [1] [nM]
1 | CC[C@]1(OC)CCCN2C[C@H]1n1cc(C(=O)NCc3c(F)cc(F)cc3F)c(=O)c(O)c1C2=O [Example 100, (6S,7R)-6-ethyl-12-hydroxy-6-methoxy-1,11-dioxo-N-(2,4,6-trifluorobenzyl)-1,4,5,6,7,11-hexahydro-3H-2,7-methanopyrido[1,2-a][1,4]diazonine-10-carboxamide] | 1.58 | 9440 | 1.77 | 0.631 | –
2 | O=C(NCc1c(F)cc(F)cc1F)c1cn2c(c(O)c1=O)C(=O)N1CCC[C@@H](F)[C@@H]2C1 [Example 15-1, (6R,7S)-6-fluoro-12-hydroxy-1,11-dioxo-N-(2,4,6-trifluorobenzyl)-1,4,5,6,7,11-hexahydro-3H-2,7-methanopyrido[1,2-a][1,4]diazonine-10-carboxamide] | 1.7 | 18300 | 11.6 | 0.32 | –
3 | O=C(NCc1c(F)cc(F)cc1F)c1cn2c(c(O)c1=O)C(=O)N1CCC[C@H](F)[C@H]2C1 [Example 15-2, (6S, 7R)-6-fluoro-12-hydroxy-1,11-dioxo-N-(2,4,6-trifluorobenzyl)-1,4,5,6,7,11-hexahydro-3H-2,7-methanopyrido[1,2-a][1,4]diazonine-10-carboxamide] | 1.4 | 15300 | 4.32 | 0.29 | –
4 | C[C@@H]1CC[C@H](C)N2C[C@H]1n1cc(C(=O)NCc3ccc(F)cc3F)c(=O)c(O)c1C2=O [Example 175, (3S,6R,7S)—N-(2,4-difluorobenzyl)-12-hydroxy-3,6-dimethyl-1,11-dioxo-1,4,5,6,7,11-hexahydro-3H-2,7-methanopyrido[1,2-a][1,4]diazonine-10-carboxamide] | 1.29 | 7740 | 20.9 | 0.412 | –
5 | O=C(NCc1ccc(F)cc1F)c1cn2c(c(O)c1=O)C(=O)N1CCCC[C@]2(CF)C1 [Example 162-2, (7R)—N-(2,4-difluorobenzyl)-7-(fluoromethyl)-12-hydroxy-1,11-dioxo-1,4,5,6,7,11-hexahydro-3H-2,7-methanopyrido[1,2-a][1,4]diazonine-10-carboxamide] | 2.58 | 14400 | 15.3 | 0.118 | –
6 | C[C@]12CCCCN(C1)C(=O)c1c(O)c(=O)c(C(=O)NCc3c(F)cc(F)cc3F)cn12 [Example 59-1, (7S)-12-hydroxy-7-methyl-1,11-dioxo-N-(2,4,6-trifluorobenzyl)-1,4,5,6,7,11-hexahydro-3H-2,7-methanopyrido[1,2-a][1,4]diazonine-10-carboxamide] | 1.53 | 15000 | 26.4 | 0.361 | –
7 | O=C(NCc1c(F)cc(F)cc1F)c1cn2c(c(O)c1=O)C(=O)N1CC[C@H](O)CC[C@H]2C1 [Example 83-2, (5R,8S)-5,13-dihydroxy-1,12-dioxo-N-(2,4,6-trifluorobenzyl)-1,3,4,5,6,7,8,12-octahydro-2,8-methanopyrido[1,2-a][1,4]diazecine-11-carboxamide] | 12.8 | > 50000 | 2.08 | 2.15 | –
8 | O=C(NCc1ccc(F)cc1F)c1cn2c(c(O)c1=O)C(=O)N1C[C@@H]2CC=C[C@@H]1CF [Example 188] | – | 12200 | 3.48 | 0.421 | 1.19
9 | O=C(NCc1c(F)cc(F)cc1F)c1cn2c(c(O)c1=O)C(=O)N1C[C@H](O)CC[C@H]2C1 (single isomer, unassigned) [Example 79-2] | 17.7 | > 50000 | 6.61 | 5.33 | –
10 | O=C(NCc1c(F)cc(F)cc1F)c1cn2c(c(O)c1=O)C(=O)N1Cc3cc(F)c(F)cc3C[C@@H]2C1 (single isomer, unassigned) [Example 159] | 3.52 | > 43600 | 2.56 | 0.976 | –
11 | O=C(NCc1c(F)cc(F)cc1F)c1cn2c(c(O)c1=O)C(=O)N1C[C@@H](O)CC[C@H]2C1 (single isomer, unassigned) [Example 79-1] | 58.5 | > 50000 | 23.5 | 19.5 | –
12 | CC[C@@H]1CCC[C@H]2CN1C(=O)c1c(O)c(=O)c(C(=O)NCc3c(F)cc(F)cc3F)cn12 [Example 130-1, (3R,7S)-3-ethyl-12-hydroxy-1,11-dioxo-N-(2,4,6-trifluorobenzyl)-1,4,5,6,7,11-hexahydro-3H-2,7-methanopyrido[1,2-a][1,4]diazonine-10-carboxamide] | 1.53 | 12200 | 4.17 | 0.213 | –
13 | O=C(NCc1ccc(F)cc1F)c1cn2c(c(O)c1=O)C(=O)N1CC[C@H](F)C[C@H]2C1 [Example 56-1, (5S, 7S)—N-(2,4-difluorobenzyl)-5-fluoro-12-hydroxy-1,11-dioxo-1,4,5,6,7,11-hexahydro-3H-2,7-methanopyrido[1,2-a][1,4]diazonine-10-carboxamide] | 3.99 | > 39400 | 1.91 | 0.967 | –
14 | O=C(NCc1ccc(F)c(Cl)c1F)c1cn2c(c(O)c1=O)C(=O)N1CCC=C[C@H]2C1 [Example 171, (7S)—N-(3-chloro-2,4-difluorobenzyl)-12-hydroxy-1,11-dioxo-1,4,7,11-tetrahydro-3H-2,7-methanopyrido[1,2-a][1,4]diazonine-10-carboxamide] | 0.962 | 4190 | 8.5 | 0.387 | –
15 | C[C@@H]1CC[C@H]2CN(C1)C(=O)c1c(O)c(=O)c(C(=O)NCc3c(F)cc(F)cc3F)cn12 [Example 137-2, (4R,7S)-12-hydroxy-4-methyl-1,11-dioxo-N-(2,4,6-trifluorobenzyl)-1,4,5,6,7,11-hexahydro-3H-2,7-methanopyrido[1,2-a][1,4]diazonine-10-carboxamide] | 2.02 | 20700 | 0.821 | 0.182 | –
16 | O=C(NCc1ccc(F)cc1F)c1cn2c(c(O)c1=O)C(=O)N1Cc3ccc(Cl)cc3C[C@H]2C1 (single isomer, unassigned) [Example 128-1] | 2.15 | > 47200 | 7.61 | 0.763 | –
17 | O=C(NCc1ccc(F)cc1F)c1cn2c(c(O)c1=O)C(=O)N1CCCCC[C@@H]2C1 [Example 5-1, (8R)-N-(2,4-difluorobenzyl)-13-hydroxy-1,12-dioxo-1,3,4,5,6,7,8,12-octahydro-2,8-methanopyrido[1,2-a][1,4]diazecine-11-carboxamide] | 2 | 11100 | 1.24 | 0.235 | –
18 | O=C(NCc1ccc(F)cc1F)c1cn2c(c(O)c1=O)C(=O)N1CCCCC2C1 (racemic) [Example 25, N-(2,4-difluorobenzyl)-12-hydroxy-1,11-dioxo-1,4,5,6,7,11-hexahydro-3H-2,7-methanopyrido[1,2-a][1,4]diazonine-10-carboxamide] | 1.7 | 12600 | 1.92 | 0.191 | –
19 | O=C(NCc1c(F)cc(F)cc1F)c1cn2c(c(O)c1=O)C(=O)N1C[C@H]3CC[C@H](C3)[C@H]2C1 [Example 41-1, (4S,7R,8S)-13-hydroxy-1,12-dioxo-N-(2,4,6-trifluorobenzyl)-1,3,4,5,6,7,8,12-octahydro-2,8:4,7-dimethanopyrido[1,2-a][1,4]diazecine-11-carboxamide] | 1.6 | 15600 | 6.64 | 0.335 | –
